The values that follow come from patent US8598383B2, “Pharmaceutical composition for treating or preventing degenerative and inflammatory diseases” (Neurotech Pharmaceuticals Co., Ltd., priority 2006, dated 2013).

Each structure is given as a SMILES string.

In experiment [1] the test system is TNF-alpha in exudation of air pouch. Nature of the experiment: Zymosan air pouch inflammation model, TNF-alpha (ELISA). Format: in vivo. To be noted: over 30 mg/kg, once oral 1 hour before zymosan, 4 hours later. The procedure: FIG. 12 is results showing efficacy of compound 2 through the levels of TNF-alpha induced by zymosan, one of arthritis animal models. 1% zymosan was administered with air pouch, and compound 2 was once orally administered according to indicated dose 1 hour before administration of zymosan. The level of TNF-alpha in an exudation of air pouch was evaluated by ELISA method 4 hours later.
Anti-inflammation effect of compound 2 in arthritis model was evaluated with zymosan. 0.5 ml of 1% zymosan was administered with air pouch, and 3-300 mg/kg of compound 2 was once orally administered 1 hour before administration of zymosan. Edema, a main symptom of arthritis, and the level of cytokine were observed 4 hours later.
(In an ELISA, binding on a coated surface is turned into a signal by an enzyme label.)

Experiment [2] has as its system TNF-α, IL-1β and IL-6 in brain. The experiment is described as follows: Cytokines in brain of APP/PS1 dementia mice (ELISA). The class given is in vivo, mouse. To be noted: 25 mg/kg/day in chow for 7 months, vs APP/PS1 fed general chow. The procedure: FIG. 25 are graphs showing the levels of TNF-α, IL-1β or IL-6 in brain of 10.5 month-old APP/PS1 dementia mouse (Tg+). The levels were evaluated by ELISA method.
After administration of drug for 7 months, the levels of TNF-α, IL-1β and IL-6 were quantified by ELISA (mean±SEM, n=3-5). Significant difference from control (APP/PS1 mouse fed with general chow only), p<0.05 using one-way ANOVA according to Student-Neuman-Keuls' test.

Experiment [3] has as its system brain-blood vessel barrier. Nature of the experiment: Brain-blood vessel barrier protection in APP/PS1 mice (Evans blue). The class given is in vivo, mouse. As to conditions: chow from 2 to 5 month-old; compound 2 25 mg/kg/day, ibuprofen 62.5 mg/kg/day. As for the experimental part: Damage of brain blood vessel is well known in Alzheimer's disease. […] of 2% Evans blue dye was administered into blood vessel of 5 month-old APP/PS1 dementia mouse.

On to `O=C(O)c1cc(NCCc2ccc(C(F)(F)F)cc2)ccc1O` [compound 2, 2-hydroxy-5-[2-(4-trifluoromethyl-phenyl)-ethylamino]-benzoic acid], for which the “level of TNF-alpha” value in experiment [1] is reported as “decreased the level of TNF-alpha more than control”. Also, in experiment [2], the “levels of TNF-α, IL-1β and IL-6 in brain” value is “significantly reduced the levels of TNF-α, IL-β and IL-6”. The “protecting effect on brain-blood vessel barrier” value in experiment [3] is on record as “protecting effects on brain-blood vessel barrier were shown”.
